In patent publication US20210395313A1, “PEPTIDE PAC1 ANTAGONISTS” (AMGEN INC., priority 2017, published 2021):
Where a SMILES comes first, the peptide text is derived from it. Bridges are numbered along the chain shown (N, C = ends).

Assays:
human PAC1 receptor = biological target: T1, human PAC1 receptor (Homo sapiens, UniProt P41586); assay: LANCE Ultra cAMP accumulation antagonist assay in SHSY-5Y cells; format: cell-based;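 note: inhibition of cAMP accumulation evoked by PAC1 agonist at its EC80 in SHSY-5Y cells endogenously expressing receptor, 30 min preincubation then 15 min agonist, TR-FRET readout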
T1 construct: SHSY-5Y (human neuroblastoma cell line) and RG-2 (rat glioma cell line) cells endogenously express human and rat PAC1 receptors, respectively; endogenous in cells; host or cells: SHSY-5Y human neuroblastoma cells
T1 sequence (P41586 21-468): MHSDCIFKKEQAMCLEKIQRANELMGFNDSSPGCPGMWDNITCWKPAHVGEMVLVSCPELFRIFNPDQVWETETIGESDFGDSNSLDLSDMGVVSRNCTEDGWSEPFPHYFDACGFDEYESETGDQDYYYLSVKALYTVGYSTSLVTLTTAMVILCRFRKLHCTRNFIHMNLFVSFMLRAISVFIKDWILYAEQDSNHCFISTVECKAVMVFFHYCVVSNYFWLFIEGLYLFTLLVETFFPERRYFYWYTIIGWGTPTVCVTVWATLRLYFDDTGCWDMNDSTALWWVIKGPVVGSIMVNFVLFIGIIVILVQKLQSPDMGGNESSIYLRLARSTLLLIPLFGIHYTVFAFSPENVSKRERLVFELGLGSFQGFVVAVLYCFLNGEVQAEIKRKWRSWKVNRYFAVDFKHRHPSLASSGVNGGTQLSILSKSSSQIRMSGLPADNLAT

rat PAC1 receptor = biological target: T2, rat PAC1 receptor (Rattus norvegicus, UniProt P32215); assay: LANCE Ultra cAMP accumulation antagonist assay in RG-2 cells; format: cell-based;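 note: RG-2 rat glioma cells endogenously expressing PAC1, test peptide preincubated 30 min, then PAC1 agonist added at its EC80 for 15 min, cAMP accumulation read by LANCE Ultra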
T2 construct: SHSY-5Y (human neuroblastoma cell line) and RG-2 (rat glioma cell line) cells endogenously express human and rat PAC1 receptors, respectively; endogenous in cells; host or cells: RG-2 rat glioma cells
T2 sequence (P32215 20-523): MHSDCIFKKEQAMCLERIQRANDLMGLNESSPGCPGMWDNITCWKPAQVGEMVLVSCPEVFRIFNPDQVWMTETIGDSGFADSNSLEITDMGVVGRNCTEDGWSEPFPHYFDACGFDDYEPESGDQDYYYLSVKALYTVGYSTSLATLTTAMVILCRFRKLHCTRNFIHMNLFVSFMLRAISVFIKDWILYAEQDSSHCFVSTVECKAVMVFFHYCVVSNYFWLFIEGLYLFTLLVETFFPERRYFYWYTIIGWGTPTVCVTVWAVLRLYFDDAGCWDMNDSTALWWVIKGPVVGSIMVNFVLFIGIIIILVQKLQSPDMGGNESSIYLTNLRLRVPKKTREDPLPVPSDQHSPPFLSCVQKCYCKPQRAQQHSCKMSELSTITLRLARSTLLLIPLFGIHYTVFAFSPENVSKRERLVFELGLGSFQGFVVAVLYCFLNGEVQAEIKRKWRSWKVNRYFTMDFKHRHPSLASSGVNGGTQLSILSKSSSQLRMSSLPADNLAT

| SMILES | IC50 (human PAC1 receptor) | IC50 (rat PAC1 receptor) |
| --- | --- | --- |
| CC[C@H](C)[C@H](NC(=O)[C@H](C)NC(=O)[C@H](CCCCN)NC(=O)[C@H](CCCNC(=N)N)NC(=O)[C@H](Cc1ccccc1)NC(=O)[C@H](CCC(N)=O)NC(=O)[C@@H]1CSSC[C@H](N)C(=O)N[C@@H](CC(=O)O)C(=O)N[C@@H](C)C(=O)N[C@@H]([C@@H](C)O)C(=O)N1)C(=O)N[C@@H](CC(=O)O)C(=O)N[C@@H](CC(=O)O)C(=O)N[C@H]1CSSC[C@@H](C(=O)N[C@@H](CCSC)C(=O)N[C@@H](CCCCN)C(=O)N[C@@H](CCC(N)=O)C(=O)N[C@@H](CCCCN)C(=O)N[C@@H](CCCCN)C(=O)N[C@@H](CCCCN)C(=O)N[C@@H](CCC(=O)O)C(=O)N[C@@H](Cc2ccccc2)C(=O)N[C@@H](CCCCN)C(N)=O)NC(=O)[C@H](CCC(=O)O)NC(=O)[C@H](CCCCN)NC(=O)[C@H](Cc2ccccc2)NC(=O)[C@H](CO)NC(=O)[C@H](CC(N)=O)NC(=O)[C@H](CO)NC(=O)[C@H](Cc2c[nH]cn2)NC(=O)[C@H](Cc2c[nH]cn2)NC(=O)[C@H](C)NC(=O)[C@H](CCC(N)=O)NC(=O)[C@H](CCCCN)NC(=O)[C@H](CCC(N)=O)NC1=O [compound 224] (H-CDATCQFRKAIDDCQKQAHHSNSFKECMKQKKKEFK-NH2; disulfide 1-5, 14-27) | 0.01 to 1 nM | 1 to 100 nM |
| CC[C@H](C)[C@H](NC(=O)[C@H](C)NC(=O)[C@H](CCCCN)NC(=O)[C@H](CCCNC(=N)N)NC(=O)[C@H](Cc1ccccc1)NC(=O)[C@H](CCC(N)=O)NC(=O)[C@@H]1CSSC[C@H](N)C(=O)N[C@@H](CC(=O)O)C(=O)N[C@@H](C)C(=O)N[C@@H]([C@@H](C)O)C(=O)N1)C(=O)N[C@@H](CC(=O)O)C(=O)N[C@@H](CC(=O)O)C(=O)N[C@H]1CSSC[C@@H](C(=O)N[C@@H](CCSC)C(=O)N[C@@H](CCCCN)C(=O)N[C@@H](CCC(N)=O)C(=O)N[C@@H](CCCCN)C(=O)N[C@@H](CCCCN)C(=O)N[C@@H](CCCCN)C(=O)N[C@@H](CCC(=O)O)C(=O)N[C@@H](Cc2ccccc2)C(=O)N[C@@H](CCCCN)C(N)=O)NC(=O)[C@H](CCC(=O)O)NC(=O)[C@H](CCCCN)NC(=O)[C@H](Cc2ccccc2)NC(=O)[C@H](C(C)C)NC(=O)[C@H](CO)NC(=O)[C@H](CO)NC(=O)[C@H](Cc2c[nH]cn2)NC(=O)[C@H](Cc2c[nH]cn2)NC(=O)[C@H](C)NC(=O)[C@H](CCC(N)=O)NC(=O)[C@H](CCCCN)NC(=O)[C@H](CCC(N)=O)NC1=O [compound 225] (H-CDATCQFRKAIDDCQKQAHHSSVFKECMKQKKKEFK-NH2; disulfide 1-5, 14-27) | 0.01 to 1 nM | 1 to 100 nM |
| CC[C@H](C)[C@H](NC(=O)[C@H](C)NC(=O)[C@H](CCCCN)NC(=O)[C@H](CCCNC(=N)N)NC(=O)[C@H](Cc1ccccc1)NC(=O)[C@H](CCC(N)=O)NC(=O)[C@@H]1CSSC[C@H](N)C(=O)N[C@@H](CC(=O)O)C(=O)N[C@@H](C)C(=O)N[C@@H]([C@@H](C)O)C(=O)N1)C(=O)N[C@@H](CC(=O)O)C(=O)N[C@@H](CC(=O)O)C(=O)N[C@H]1CSSC[C@@H](C(=O)N[C@@H](CCSC)C(=O)N[C@@H](CCCCN)C(=O)N[C@@H](CCC(N)=O)C(=O)N[C@@H](CCCCN)C(=O)N[C@@H](CCCCN)C(=O)N[C@@H](CCCCN)C(=O)N[C@@H](CCC(=O)O)C(=O)N[C@@H](Cc2ccccc2)C(=O)N[C@@H](CCCCN)C(N)=O)NC(=O)[C@H](CCC(=O)O)NC(=O)[C@H](CCCCN)NC(=O)[C@H](Cc2ccccc2)NC(=O)[C@H](C(C)C)NC(=O)[C@H](CO)NC(=O)[C@H](CC(N)=O)NC(=O)CNC(=O)[C@H](C(C)C)NC(=O)[C@H](CC(N)=O)NC(=O)[C@H](CO)NC(=O)[C@H](Cc2c[nH]cn2)NC(=O)[C@H](Cc2c[nH]cn2)NC(=O)[C@H](C)NC(=O)[C@H](CCC(N)=O)NC(=O)[C@H](CCCCN)NC(=O)[C@H](CCC(N)=O)NC1=O [compound 275] (H-CDATCQFRKAIDDCQKQAHHSNVGNSVFKECMKQKKKEFK-NH2; disulfide 1-5, 14-31) | 1 to 100 nM | 1 to 100 nM |
| CC[C@H](C)[C@H](NC(=O)[C@H](C)NC(=O)[C@H](CCCCN)NC(=O)[C@H](CCCNC(=N)N)NC(=O)[C@H](Cc1ccccc1)NC(=O)[C@H](CCC(N)=O)NC(=O)[C@@H]1CSSC[C@H](N)C(=O)N[C@@H](CC(=O)O)C(=O)N[C@@H](C)C(=O)N[C@@H]([C@@H](C)O)C(=O)N1)C(=O)N[C@@H](CC(=O)O)C(=O)N[C@@H](CC(=O)O)C(=O)N[C@H]1CSSC[C@@H](C(=O)N[C@@H](CCSC)C(=O)N[C@@H](CCCCN)C(=O)N[C@@H](CCC(N)=O)C(=O)N[C@@H](CCCCN)C(=O)N[C@@H](CCCCN)C(=O)N[C@@H](CCCCN)C(=O)N[C@@H](CCC(=O)O)C(=O)N[C@@H](Cc2ccccc2)C(=O)N[C@@H](CCCCN)C(N)=O)NC(=O)[C@H](CCC(=O)O)NC(=O)[C@H](CCCCN)NC(=O)[C@H](Cc2ccccc2)NC(=O)[C@H](C(C)C)NC(=O)[C@H](CO)NC(=O)CNC(=O)[C@@H]2CCCN2C(=O)[C@H](C(C)C)NC(=O)[C@H](CC(N)=O)NC(=O)[C@H](CO)NC(=O)[C@H](Cc2c[nH]cn2)NC(=O)[C@H](Cc2c[nH]cn2)NC(=O)[C@H](C)NC(=O)[C@H](CCC(N)=O)NC(=O)[C@H](CCCCN)NC(=O)[C@H](CCC(N)=O)NC1=O [compound 293] | 1 to 100 nM | 0.01 to 1 nM |
| CC[C@H](C)[C@H](NC(=O)[C@H](C)NC(=O)[C@H](CCCCN)NC(=O)[C@H](CCCNC(=N)N)NC(=O)[C@H](Cc1ccccc1)NC(=O)[C@H](CCC(N)=O)NC(=O)[C@@H]1CSSC[C@H](N)C(=O)N[C@@H](CC(=O)O)C(=O)N[C@@H](C)C(=O)N[C@@H]([C@@H](C)O)C(=O)N1)C(=O)N[C@@H](CC(=O)O)C(=O)N[C@@H](CC(=O)O)C(=O)N[C@H]1CSSC[C@@H](C(=O)N[C@@H](CCSC)C(=O)N[C@@H](CCCCN)C(=O)N[C@@H](CCC(N)=O)C(=O)N[C@@H](CCCCN)C(=O)N[C@@H](CCCCN)C(=O)N[C@@H](CCCCN)C(=O)N[C@@H](CCC(=O)O)C(=O)N[C@@H](Cc2ccccc2)C(=O)N[C@@H](CCCCN)C(N)=O)NC(=O)[C@H](CCC(=O)O)NC(=O)[C@H](CCCCN)NC(=O)[C@H](Cc2ccccc2)NC(=O)[C@H](C(C)C)NC(=O)[C@H](CO)NC(=O)[C@H](CC(N)=O)NC(=O)CNC(=O)[C@@H]2CCCN2C(=O)[C@H](C(C)C)NC(=O)[C@H](CC(N)=O)NC(=O)[C@H](CO)NC(=O)[C@H](Cc2c[nH]cn2)NC(=O)[C@H](Cc2c[nH]cn2)NC(=O)[C@H](C)NC(=O)[C@H](CCC(N)=O)NC(=O)[C@H](CCCCN)NC(=O)[C@H](CC(=O)O)NC1=O [compound 295] | 1 to 100 nM | 0.01 to 1 nM |
